Assay results as given in patent US20070049593A1 (priority 2004, published 2007).
Counter-ions that a name gives are not always drawn. Like-named read-outs stand apart in the source and are kept apart here.

Biological target: T1, HCV polymerase (Hepatitis C virus genotype 1b, UniProt P26663)
T1 construct: a region encoding NS5B (J Virol 1991 March, 65(3), 1105-13, 544 amino acids after deletion of 47 amino acids on the C-terminal); 6xHis (C); made in house; host or cells: Escherichia coli
Test: biochemical
Parameters: species or system HCV BK strain
Outline: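 Recombinant HCV BK-strain NS5B (C-terminal 47 aa deleted, His6-tagged, E. coli), 0.5 μg/ml, run with 5 μg/ml in vitro-transcribed RNA template (polyU/3′X), ATP/GTP/CTP 50 μM, UTP 2 μM plus [3H]UTP, pH 7.5, 25° C, 90 min. TCA-precipitated RNA counted by scintillation; IC50 from activity with vs without compound.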

T1 sequence (P26663 2420-2963): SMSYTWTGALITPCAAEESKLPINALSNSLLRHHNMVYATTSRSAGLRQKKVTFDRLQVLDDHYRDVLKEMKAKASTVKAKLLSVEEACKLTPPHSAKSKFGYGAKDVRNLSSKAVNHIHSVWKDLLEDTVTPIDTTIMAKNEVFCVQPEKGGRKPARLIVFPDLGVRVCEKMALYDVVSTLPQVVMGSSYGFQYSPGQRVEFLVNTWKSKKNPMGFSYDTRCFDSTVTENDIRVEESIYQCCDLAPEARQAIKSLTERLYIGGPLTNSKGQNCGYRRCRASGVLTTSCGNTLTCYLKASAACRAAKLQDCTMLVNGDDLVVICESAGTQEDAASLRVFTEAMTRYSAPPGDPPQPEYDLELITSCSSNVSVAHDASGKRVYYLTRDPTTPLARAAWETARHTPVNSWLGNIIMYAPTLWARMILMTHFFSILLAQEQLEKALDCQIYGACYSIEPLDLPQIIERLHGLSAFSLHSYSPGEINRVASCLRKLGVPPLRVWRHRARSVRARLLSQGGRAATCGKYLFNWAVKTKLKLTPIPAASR

| Compound | IC50 (read-out: HCV polymerase inhibitory activity IC50, 25° C., 90 min, [5,6-3H]UTP incorporation into RNA) [nM] | IC50 [nM] |
| --- | --- | --- |
| O=C(NC(Cc1c[nH]c2ccc(O)cc12)C(=O)O)c1ccc2c(C3CCCCC3)c3n(c2c1)CCOc1ccccc1-3 (stereo not shown) [Example 2-253] | < 100 | – |
| CC(C)(CN/C=C/C(=O)O)NC(=O)c1ccc2c(C3CCCCC3)c3n(c2c1)CCOc1ccccc1-3 [Example 2-254, (E)-3-{2-[(12-cyclohexyl-6,7-dihydro-5-oxa-7a-azadibenzo[a,e]azulene-9-carbonyl)amino]-2-methylpropylamino}acrylic acid] | – | 100 to 1000 |
| CC(C)(CNc1ccc(C(=O)O)cn1)NC(=O)c1ccc2c(C3CCCCC3)c3n(c2c1)CCOc1ccccc1-3 [Example 2-255, 6-{2-[(12-cyclohexyl-6,7-dihydro-5-oxa-7a-azadibenzo[a,e]azulene-9-carbonyl)amino]-2-methylpropylamino}nicotinic acid] | – | < 100 |
| O=C(O)c1ccc2c(C3CCCCC3)c3n(c2c1)CCOc1c-3cccc1N(CCOCc1ccccc1)CCN1CCCCC1 [Example 2-256, 4-{N-(2-benzyloxyethyl)-N-[2-(piperidin-1-yl)ethyl]amino}-12-cyclohexyl-6,7-dihydro-5-oxa-7a-azadibenzo[a,e]azulene-9-carboxylic acid dihydrochloride] | – | < 100 |
| CC(C)OCCN(CCN1CCCCC1)c1cccc2c1OCCn1c-2c(C2CCCCC2)c2ccc(C(=O)O)cc21 [Example 2-257, 12-cyclohexyl-4-(N-(2-isopropoxyethyl)-N-[2-(piperidin-1-yl)ethyl]amino}-6,7-dihydro-5-oxa-7a-azadibenzo[a,e]azulene-9-carboxylic acid dihydrochloride] | – | < 100 |
| Cc1nc(C(C)(C)NC(=O)c2ccc3c(C4CCCCC4)c4n(c3c2)CCOc2ccccc2-4)[nH]c1C [Example 2-258, N-[1-(4,5-dimethyl-1H-imidazol-2-yl)-1-methylethyl]-12-cyclohexyl-6,7-dihydro-5-oxa-7a-azadibenzo[a,e]azulene-9-carboxamide] | – | < 100 |
| Cc1nc(C(C)(C)NC(=O)c2ccc3c(C4CCCCC4)c4n(c3c2)CCOc2ccccc2-4)n(C)c1C [Example 2-259, N-[1-methyl-1-(1,4,5-trimethyl-1H-imidazol-2-yl)ethyl]-12-cyclohexyl-6,7-dihydro-5-oxa-7a-azadibenzo[a,e]azulene-9-carboxamide] | – | < 100 |
| CC(C)(NC(=O)c1ccc2c(C3CCCCC3)c3n(c2c1)CCOc1ccccc1-3)C(=O)Nc1cccc(O)c1 [Example 2-260, N-[1-(3-hydroxyphenylcarbamoyl)-1-methylethyl]-12-cyclohexyl-6,7-dihydro-5-oxa-7a-azadibenzo[a,e]azulene-9-carboxamide] | – | < 100 |
| O=C(O)c1ccc2c(C3CCCCC3)c3n(c2c1)CCOc1c-3cccc1N(CCO)CCN1CCCCC1 [Example 2-261, 12-cyclohexyl-4-{N-(2-hydroxyethyl)-N-[2-(piperidin-1-yl)ethyl]amino}-6,7-dihydro-5-oxa-7a-azadibenzo[a,e]azulene-9-carboxylic acid dihydrochloride] | – | < 100 |
| COc1ccc2c(c1)OCCn1c-2c(C2CCCCC2)c2ccc(C(=O)N[C@@H](Cc3ccc(O)cc3)C(=O)N(C)C)cc21 [Example 2-262, N—[(S)-1-dimethylcarbamoyl-2-(4-hydroxyphenyl)ethyl]-12-cyclohexyl-3-methoxy-6,7-dihydro-5-oxa-7a-azadibenzo[a,e]azulene-9-carboxamide] | – | < 100 |
| CNC(=O)[C@H](Cc1ccc(O)cc1)NC(=O)c1ccc2c(C3CCCCC3)c3n(c2c1)CCOc1cc(OC)ccc1-3 [Example 2-263, N—[(S)-2-(4-hydroxyphenyl)-1-(methylcarbamoyl)ethyl]-12-cyclohexyl-3-methoxy-6,7-dihydro-5-oxa-7a-azadibenzo[a,e]azulene-9-carboxamide] | – | < 100 |
| COC(=O)Cn1c(C(C)(C)NC(=O)c2ccc3c(C4CCCCC4)c4n(c3c2)CCOc2ccccc2-4)nc(C)c1C [Example 2-264, methyl (2-{1-[(12-cyclohexyl-6,7-dihydro-5-oxa-7a-azadibenzo[a,e]azulene-9-carbonyl)amino]-1-methylethyl}-4,5-dimethylimidazol-1-yl)acetate] | – | < 100 |
| Cc1nc(C(C)(C)NC(=O)c2ccc3c(C4CCCCC4)c4n(c3c2)CCOc2ccccc2-4)n(CC(=O)O)c1C [Example 2-265, (2-{1-[(12-cyclohexyl-6,7-dihydro-5-oxa-7a-azadibenzo[a,e]azulene-9-carbonyl)amino]-1-methylethyl}-4,5-dimethylimidazol-1-yl)acetic acid] | – | 100 to 1000 |
| COC(=O)c1ccc2nc(NC(=O)c3ccc4c(C5CCCCC5)c5n(c4c3)CCOc3ccccc3-5)[nH]c2c1 [Example 2-266, methyl 2-[(12-cyclohexyl-6,7-dihydro-5-oxa-7a-azadibenzo[a,e]azulene-9-carbonyl)amino]-3H-benzimidazole-5-carboxylate] | – | 100 to 1000 |
| O=C(Nc1nc2ccccc2[nH]1)c1ccc2c(C3CCCCC3)c3n(c2c1)CCOc1ccccc1-3 [Example 2-267, N-(1H-benzimidazol-2-yl)-12-cyclohexyl-6,7-dihydro-5-oxa-7a-azadibenzo[a,e]azulene-9-carboxamide] | – | 100 to 1000 |
| O=C(O)c1ccc2nc(NC(=O)c3ccc4c(C5CCCCC5)c5n(c4c3)CCOc3ccccc3-5)[nH]c2c1 [Example 2-268, 2-[(12-cyclohexyl-6,7-dihydro-5-oxa-7a-azadibenzo[a,e]azulene-9-carbonyl)amino]-3H-benzimidazole-5-carboxylic acid] | – | 100 to 1000 |
| CC(C)(NC(=O)c1ccc2c(C3CCCCC3)c3n(c2c1)CCOc1ccccc1-3)c1nc2ccc(C#N)cc2[nH]1 [Example 2-269, N-[1-(6-cyano-1H-benzimidazol-2-yl)-1-methylethyl]-12-cyclohexyl-6,7-dihydro-5-oxa-7a-azadibenzo[a,e]azulene-9-carboxamide] | – | < 100 |
| COC(=O)[C@@H](NC(=O)c1ccc2c(C3CCCCC3)c3n(c2c1)CCOc1cc(OC)ccc1-3)c1ccc(O)cc1 [Example 2-270, methyl (S)-2-[(12-cyclohexyl-3-methoxy-6,7-dihydro-5-oxa-7a-azadibenzo[a,e]azulene-9-carbonyl)amino]-2-(4-hydroxyphenyl)acetate] | – | < 100 |
| COC(=O)[C@H](NC(=O)c1ccc2c(C3CCCCC3)c3n(c2c1)CCOc1cc(OC)ccc1-3)c1ccc(O)cc1 [Example 2-271, methyl (R)-2-[(12-cyclohexyl-3-methoxy-6,7-dihydro-5-oxa-7a-azadibenzo[a,e]azulene-9-carbonyl)amino]-2-(4-hydroxyphenyl)acetate] | – | < 100 |
| CCN(CCN1CCC(OC)CC1)c1cccc2c1OCCn1c-2c(C2CCCCC2)c2ccc(C(=O)O)cc21 [Example 2-272, 12-cyclohexyl-4-{N-ethyl-N-[2-(4-methoxypiperidin-1-yl)ethyl]amino}-6,7-dihydro-5-oxa-7a-azadibenzo[a,e]azulene-9-carboxylic acid dihydrochloride] | – | < 100 |
| O=C(O)c1ccc2c(C3CCCCC3)c3n(c2c1)CCOc1c(-c2ccccc2)cccc1-3 [Example 2-273, 12-cyclohexyl-4-phenyl-6,7-dihydro-5-oxa-7a-azadibenzo[a,e]azulene-9-carboxylic acid] | – | < 100 |
| CCN(CCN1CCCC(COC)C1)c1cccc2c1OCCn1c-2c(C2CCCCC2)c2ccc(C(=O)O)cc21 (stereo not shown) [Example 2-274, 12-cyclohexyl-4-{N-ethyl-N-[2-(3-methoxymethylpiperidin-1-yl)ethyl]amino}-6,7-dihydro-5-oxa-7a-azadibenzo[a,e]azulene-9-carboxylic acid dihydrochloride] | – | < 100 |
| CCN(CCN1CCC(COC)CC1)c1cccc2c1OCCn1c-2c(C2CCCCC2)c2ccc(C(=O)O)cc21 [Example 2-275, 12-cyclohexyl-4-{N-ethyl-N-[2-(4-methoxymethylpiperidin-1-yl)ethyl]amino}-6,7-dihydro-5-oxa-7a-azadibenzo[a,e]azulene-9-carboxylic acid dihydrochloride] | – | < 100 |
| CCCN(CCN1CCCCC1)c1cccc2c1OCCn1c-2c(C2CCCCC2)c2ccc(C(=O)NC(C)(C)C(=O)O)cc21 [Example 2-276, 2-[(12-cyclohexyl-4-{N-[2-(piperidin-1-yl)ethyl]-N-propylamino}-6,7-dihydro-5-oxa-7a-azadibenzo[a,e]azulene-9-carbonyl)amino]-2-methylpropionic acid] | – | < 100 |
| O=C(O)c1ccc2c(C3CCCCC3)c3n(c2c1)CCOc1c-3cccc1N(CC(=O)N1CCCCC1)CC(=O)N1CCCCC1 [Example 2-277, 4-{bis[2-oxo-2-(piperidin-1-yl)ethyl]amino}-12-cyclohexyl-6,7-dihydro-5-oxa-7a-azadibenzo[a,e]azulene-9-carboxylic acid] | – | < 100 |
| O=C(O)c1ccc2c(C3CCCCC3)c3n(c2c1)CCOc1c-3cccc1N(CCN1CCCCC1)CCN1CCCCC1 [Example 2-278, 4-{bis[2-(piperidin-1-yl)ethyl]amino}-12-cyclohexyl-6,7-dihydro-5-oxa-7a-azadibenzo[a,e]azulene-9-carboxylic acid dihydrochloride] | – | < 100 |
| COC(=O)[C@H](Cc1ccc(F)cc1)NC(=O)c1ccc2c(C3CCCCC3)c3n(c2c1)CCOc1cc(OC)ccc1-3 [Example 2-279, methyl (S)-2-[(12-cyclohexyl-3-methoxy-6,7-dihydro-5-oxa-7a-azadibenzo[a,e]azulene-9-carbonyl)amino]-3-(4-fluorophenyl)propionate] | – | < 100 |
| COC(=O)[C@H](Cc1c[nH]cn1)NC(=O)c1ccc2c(C3CCCCC3)c3n(c2c1)CCOc1cc(OC)ccc1-3 [Example 2-280, methyl (S)-2-[(12-cyclohexyl-3-methoxy-6,7-dihydro-5-oxa-7a-azadibenzo[a,e]azulene-9-carbonyl)amino]-3-(1H-imidazol-4-yl)propionate] | – | < 100 |
